We go through nine compounds from US20060247305A1, “Chromen-4-one inhibitors of anti-apoptotic Bcl-2 family members and the uses thereof” (Regents of the University of Michigan, priority 2005, published 2006).

Like-named read-outs stand apart in the source and are kept apart here.

Usually Ki stands for a dissociation constant, usually derived from enzyme kinetics or from competition with a known ligand. For orientation: IC50 means the concentration at which inhibition is half-maximal.

Test [1] addresses T1, human Bcl-xL recombinant His-tagged protein (Homo sapiens, UniProt Q07817).
T1 construct: without the C-terminus hydrophobic tail; His
Put plainly: Bcl-xL fluorescence polarization-based competitive binding assay (Flu-Bak peptide). Conditions: for Ki: FP assay, 60 nM Bcl-xL, 5 nM Flu-Bak peptide, Ki calculated from IC50; for fold decrease of binding affinity to Bcl-xL: relative to the parent analogue (15d compared with 15b; 15j: removal of the big hydrophobic group).

The test system of test [2] is PC-3 prostate cancer cells. Description: Cell growth inhibition, MTT, PC-3 prostate cancer cells. In kind it is cell-based, human. Conditions: for IC50: Homo sapiens, 120 h, 5 days incubation, MTT cell viability, read-out: Cellular Activity IC50 (μM) PC3. How it is done: (§1) To test the effect of compounds of the present invention on inhibition of cell growth in human cancer cells, the compounds were administered to two different cancer cell lines. PC-3 prostate cancer cells and 2LMP breast cancer cells were each seeded in 96-well plates with increasing concentrations of inhibitor compounds. The cells were then incubated at 37° C. with 5% CO2 for 5 days, followed by detection of cell viability with MTT. Untreated cells were used as 100% growth.

In a further test the test system is 2LMP breast cancer cells. Put plainly: Cell growth inhibition, MTT, 2LMP breast cancer cells. To be noted: for IC50: Homo sapiens, 120 h, 5 days incubation, MTT cell viability, read-out: Cellular Activity IC50 (μM) 2LMP. It counts as cell-based, human. How it is done: as §1
Test [3] deals with Bcl-2 recombinant His-fused soluble protein (Homo sapiens, UniProt P10415). Put plainly: Bcl-2 fluorescence polarization-based competitive binding assay (Flu-Bid-21 peptide). Conditions: for Ki: FP assay, 0.120 μM Bcl-2, 0.010 μM Flu-Bid-21, 4 hours incubation, Ki calculated from IC50, read-out: Binding Affinity Ki (μM) Bc1-2; for fold decrease of binding affinity to Bcl-2: relative to the parent analogue (15c, 15d compared with 15b; 15j: removal of the big hydrophobic group).

The mark [4] stands for this setting: read-out: Binding Affinity Ki (μM) Bc1-xL.

Chain of Bcl-2 recombinant His-fused soluble protein (P10415 whole entry, the tested form may be a part): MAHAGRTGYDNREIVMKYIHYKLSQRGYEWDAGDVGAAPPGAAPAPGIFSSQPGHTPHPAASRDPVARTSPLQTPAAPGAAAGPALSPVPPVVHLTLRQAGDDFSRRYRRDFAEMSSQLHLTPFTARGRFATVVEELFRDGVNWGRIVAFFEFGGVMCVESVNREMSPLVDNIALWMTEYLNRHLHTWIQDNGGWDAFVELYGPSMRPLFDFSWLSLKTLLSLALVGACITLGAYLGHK
T1 sequence (Q07817 1-209 limits assumed): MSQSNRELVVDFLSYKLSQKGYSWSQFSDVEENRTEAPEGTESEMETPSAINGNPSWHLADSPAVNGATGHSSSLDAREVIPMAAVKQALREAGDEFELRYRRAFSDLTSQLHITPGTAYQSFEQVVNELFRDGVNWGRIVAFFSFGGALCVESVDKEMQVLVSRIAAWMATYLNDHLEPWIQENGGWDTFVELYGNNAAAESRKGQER

Consider `Cc1cc2c(C(C)C)c(O)c(O)c(C=O)c2c(O)c1-c1c(C)cc2c(C(C)C)c(O)c(O)c(C=O)c2c1O` [gossypol, reference compound], for which the Ki in test [1] (Binding Affinity Ki (μM) Bc1-xL) was 1.97 ± 0.39 µM. For the same compound, the IC50 in test [2] was found to be 9.7 µM; in the test on 2LMP breast cancer cells it was 6 µM.
Turning to `Cc1cc(=O)c2c(O)c(O)c(O)c(CC(C)C)c2o1` [Compound 15j, 5,6,7-Trihydroxy-8-isobutyl-2-methyl-chromen-4-one], the Ki in test [1] (setting [4]) is above 14 µM; in test [3] it was 4.63 ± 0.16 µM. In addition, the “fold decrease of binding affinity to Bcl-xL” value in test [1] was “more than 10 fold”. Also, the “fold decrease of binding affinity to Bcl-2” value (from here on “fold decrease … to Bcl-2”) in test [3] is on record as above 50 fold. Also, the IC50 is 20.1 µM in test [2] and above 30 µM in the test on 2LMP breast cancer cells.
For `Cc1oc2c(CC(C)C)c(O)c(O)c(O)c2c(=O)c1-c1ccc2c(C)c(O)ccc2c1` [Compound 15a, 5,6,7-Trihydroxy-3-(6-hydroxy-5-methyl-naphthalen-2-yl)-8-isobutyl-2-methyl-chromen-4-one], the results for the Ki in test [1] (setting [4]) and in test [3] were 1.78 ± 0.13 µM and 0.13 ± 0.01 µM, respectively. Moreover, the IC50 in test [2] came to 3.09 µM; in the test on 2LMP breast cancer cells it was 1.44 µM.
Regarding `CCOc1ccc2cc(-c3c(C)oc4c(CC(C)C)c(OC)c(OC)c(OC)c4c3=O)ccc2c1` [Compound 15e, 3-(6-Ethoxy-naphthalen-2-yl)-8-isobutyl-5,6,7-trimethoxy-2-methyl-chromen-4-one], the Ki in test [1] (setting [4]) was above 14 µM; in test [3], above 12 µM.
For `Cc1oc2c(CC(C)C)c(O)c(O)c(O)c2c(=O)c1-c1ccc2cc(O)ccc2c1` [Compound 15b, 5,6,7-Trihydroxy-3-(6-hydroxy-naphthalen-2-yl)-8-isobutyl-2-methyl-chromen-4-one], the values for the Ki in test [1] (setting [4]) and in test [3] were 1.71 ± 0.22 µM and 0.17 ± 0.02 µM, respectively. Besides, the IC50 was found to be 5.07 µM in test [2] and 2.55 µM in the test on 2LMP breast cancer cells.
Regarding `Cc1oc2c(CC(C)C)c(O)c(O)c(O)c2c(=O)c1-c1ccccc1` [Compound 15f, 5,6,7-Trihydroxy-8-isobutyl-2-methyl-3-phenyl-chromen-4-one], the figures for the Ki in test [1] (setting [4]) and in test [3] were 4.27 ± 0.84 µM and 0.79 ± 0.03 µM, respectively. Moreover, the IC50 in test [2] came out at 23.7 µM; with 2LMP breast cancer cells it was 9.3 µM.
For `Cc1oc2c(CC(C)C)c(O)c(O)c(O)c2c(=O)c1-c1ccc2ccccc2c1` [Compound 15c, 5,6,7-Trihydroxy-8-isobutyl-2-methyl-3-naphthalen-2-yl-chromen-4-one], the Ki is 2.32 ± 0.26 µM in test [1] (setting [4]) and 0.39 ± 0.17 µM in test [3]. In addition, the “fold decrease … to Bcl-2” value in test [3] is listed as “about 2 fold”. Moreover, the IC50 amounted to 3.62 µM in test [2] and 2.08 µM with 2LMP breast cancer cells.
Regarding `Cc1oc2c(CC(C)C)c(O)c(O)c(O)c2c(=O)c1-c1ccc2c(C(C)C)c(O)ccc2c1` [Compound 2, 5,6,7-Trihydroxy-3-(6-hydroxy-5-isopropyl-naphthalen-2-yl)-8-isobutyl-2-methyl-chromen-4-one], the Ki in test [1] (setting [4]) was 1.49 µM; in test [3], 0.088 µM. The IC50 in test [2] was 1.82 µM; with 2LMP breast cancer cells, 1.54 µM. Further, the “fold more potent than gossypol, cell growth inhibitory activity, PC3” value in test [2] (relative to gossypol) lay within 3 to 4 fold. Also, the “fold more potent than gossypol, cell growth inhibitory activity, 2LMP” value in the test on 2LMP breast cancer cells (relative to gossypol) lay in the range of 3 to 4 fold.
With `COc1c(OC)c(OC)c2c(=O)c(-c3ccc4cc(O)ccc4c3)c(C)oc2c1CC(C)C` [Compound 15d, 3-(6-Hydroxy-naphthalen-2-yl)-8-isobutyl-5,6,7-trimethoxy-2-methyl-chromen-4-one], the inhibitory constant (Ki) is above 14 µM in test [1] (setting [4]) and 1.24 ± 0.13 µM in test [3]. Besides, the “fold decrease of binding affinity to Bcl-xL” value in test [1] was “more than 10 fold”. The “fold decrease … to Bcl-2” value in test [3] is “more than 10 fold”. Moreover, the IC50 in test [2] was 20.6 µM; in the test on 2LMP breast cancer cells, above 30 µM.
